“Also recorded” adds a separate entry of the source. Read-outs that look alike come from different tables or passages of the source.
Columns and labels:
PhoQ = target: T1, PhoQ (Escherichia coli, UniProt P23837); assay: Inhibition of PhoQ autophosphorylation; type: biochemical, Escherichia coli K12
T1 construct: cytoplasmic regions of PhoQ (261-486) and CpxA (188-457); His6 (C); made in house; host or cells: E. coli BL21(DE3)
Procedure: (§1) Autophosphorylation of WalK was conducted at 0.5 or 1 µM in a reaction mixture comprising 50 mM Tris-HCl (pH 8.5), 100 mM KCl, 5 mM MgCl2, 100 mM NH4Cl, 5% DMSO, and 40 µM ATP. The total reaction volume was 40 µl, and the incubation lasted for 30 min at 25 °C. To terminate the reaction, 40 µl of 2 × SDS-PAGE sample buffer was added, followed by a 10-min incubation at 37 °C. Subsequently, SDS-PAGE (10% acrylamide) was performed, and the samples were subjected to Western blotting using a PVDF membrane (Bio-Rad 1620177). The primary antibody used was anti-N3-phosphohistidine antibody (clone SC56-2) (EDM Millipore Corp), and the secondary antibody was goat anti-rabbit IgG-HRP (Abcam). A 2% bovine serum albumin (Sigma-Aldrich) solution served as the blocking reagent. Signals originating from phosphorylated HKs were detected using the HRP substrate (Immobilon Western Chemiluminescent HRP substrate, Millipore) and the Multi Imager II Multi Box (Bio Tools). Signal intensities were quantified with Image Analysis Software CS Analyzer 4 (ATTO). IC50 values (50% inhibitory concentrations) were determined using Prism 7 software (GraphPad).
(§2) In the assessment of naphthoquinone derivatives, the initial screening for inhibitory activity against WalK autophosphorylation was conducted at 50 or 100 µg ml^−1. Compounds displaying inhibitory activity were further examined to ascertain their IC50 values against WalK. For the chosen compounds, inhibition against EvgS, EnvZ, PhoQ, and CpxA HKs was also assessed. These reactions involved the use of 1 µM HK, 40 µM ATP, and a 30 min incubation at 25 °C.

WalK [1] = target: T2, WalK (Bacillus subtilis, UniProt Q45614); assay: Inhibition of WalK autophosphorylation; type: biochemical; set-up: key to WalK: WalK + inhibitory effect against WalK; settings: for IC50: against WalK from B. subtilis, autophosphorylation, N.I. = no inhibition, read-out: IC50
T2 construct: His6 (N); made in house; host or cells: E. coli BL21(DE3)
Procedure: as §1, §2

EvgS (559–1197) D1009A = target: T3, EvgS (559–1197) D1009A (Escherichia coli, UniProt P30855, D1009A); assay: Inhibition of EvgS autophosphorylation; type: biochemical, Escherichia coli K12
T3 construct: EvgS (559–1197) D1009A; His6 (C); made in house; host or cells: E. coli BL21(DE3)
Procedure: as §1, §2

iseA (formerly yoeB) [2] = assay: RT-qPCR of iseA expression in B. subtilis cells; type: cell-based, B. subtilis 168; set-up: key to RT-qPCR: RT-qPCR + iseA gene expression was induced in B. subtilis 168; − no effect
Procedure: In brief, the cells were aerated and grown to an optical density at 660 nm of 0.3–0.4 at 37 °C. After the addition of DMSO or naphthoquinone derivatives, the cultures were further incubated for 5 min, cooled on ice for 1 min, and then harvested by centrifugation (2300 × g, 10 min, 4 °C). The cells were resuspended in 800 µl of RNA Lysis Buffer (SV Total RNA Isolation System, Z3100, Promega), transferred to a screw-capped tube containing 400 mg of glass beads (GB-01, TOMY), and disrupted using MicroSmash (MS-100, TOMY Medico) at 3000 rpm, 60 s ON/OFF for 6 cycles. RNA was then purified from 175 µl of the supernatant using the SV Total RNA Isolation System, followed by DNase I treatment (Turbo DNA-free^TM Kit, AM1907, Invitrogen) to remove any residual genomic DNA contamination. […] The expression levels of the genes were normalized using the 16S rRNA gene as an internal standard. Each assay was performed at least three times. Statistical analyses were conducted using Tukey’s multiple comparison test (GraphPad Prism 7).

EnvZ = target: T4, EnvZ (Escherichia coli, UniProt P0AEJ4); assay: Inhibition of EnvZ autophosphorylation; type: biochemical, Escherichia coli K12
T4 construct: pETEcEnvZ(223-450); His6 (C); made in house; host or cells: E. coli BL21(DE3)
Procedure: as §1, §2

[3] = target: T5, WalK (207-611, B. subtilis) (Bacillus subtilis, UniProt Q45614); assay: Affinity selection/mass spectrometry, competition with waldiomycin; type: binding; set-up: key to AS/MS: AS/MS + competitive inhibition of the binding of waldiomycin to WalK; − increased binding of waldiomycin to WalK
T5 construct: His6 (N); made in house; host or cells: E. coli BL21(DE3)
Procedure: The affinity selection/mass spectrometry (AS/MS) is a method which can detect the binding of small compounds to proteins. This experiment was carried out following a previously established protocol (Fig. 5), with the exception of using Millipore 96-well filter plates (MSBVN1210) instead of MAHAN4510. In the experiment, 1 µM of WalK (207-611, B. subtilis, refer to Table S2) was combined and incubated with 5 µM of waldiomycin and competitor compounds in a reaction buffer. The buffer composition was as follows: 25 mM Tris-HCl (pH 8.0), 50 mM KCl, 50 mM NH4Cl, 5 mM MgCl2, 1 mM DTT, and 0.1% CHAPS. Following the incubation, the mixture was subjected to size-exclusion chromatography via centrifugation to eliminate free compounds. The protein that was eluted was then denatured by adding an equal volume of methanol/0.1% formic acid. The compounds that were subsequently released from the protein were detected using an LC/MS system. The concentrations of waldiomycin were calculated from the value of peak areas using calibration curve that covered the range of 1 nM to 1 µM (R^2 = 0.9991). The concentration of waldiomycin in the eluate of WalK and waldiomycin without competitor was 10.1 nM, and percentages to this value were calculated for other samples.

CpxA = target: T6, CpxA (Escherichia coli, UniProt P0AE82); assay: Inhibition of CpxA autophosphorylation; type: biochemical, Escherichia coli K12
T6 construct: cytoplasmic regions of PhoQ (261-486) and CpxA (188-457); His6 (C); made in house; host or cells: E. coli BL21(DE3)
Procedure: as §1, with “The” for “Autophosphorylation of WalK was conducted at 0.5 or 1 µM in a reaction mixture comprising 50 mM Tris-HCl (pH 8.5), 100 mM KCl, 5 mM MgCl2, 100 mM NH4Cl, 5% DMSO, and 40 µM ATP. The”
as §2, with “These reactions involved the use of 1 µM HK, 40 µM ATP, and a 30 min incubation at 25 °C.” left out

[4] = test system: HKs (EvgS, EnvZ, PhoQ, and CpxA); assay: Inhibition of class I HKs, summary over several HKs; type: biochemical, Escherichia coli K12; set-up: key to HKs: HKs + inhibitory effect against HKs (EvgS, EnvZ, PhoQ, and CpxA)
Procedure: as §1, §2

B. subtilis 168 strain [5] = assay: MIC, standard microtiter broth dilution; type: cell-based, Bacillus subtilis; set-up: key to MIC: MIC + antibacterial activity against Bacillus subtilis 168
Procedure: The minimum inhibitory concentrations (MICs) were determined using the standard microtiter broth dilution method, as recommended by the guidelines of the Clinical Laboratory Standards Institute.

class I HKs = test system: class I HKs; set-up: method as in PMID 27999439; settings: including WalK, PhoQ, EnvZ, and CpxA; cited from earlier work
WalK [6] = target: T2, WalK; set-up: key: WalK + inhibitory effect against WalK; settings: summary class; cited from earlier work
iseA (formerly yoeB) [7] = test system: iseA (formerly yoeB); set-up: method as in PMID 27999439, PMID 28674376, PMID 26582287; key: RT-qPCR + iseA gene expression was induced in B. subtilis 168; − no effect; settings: summary class, iseA gene expression; cited from earlier work
[8] = test system: HKs (EvgS, EnvZ, PhoQ, and CpxA); set-up: key: HKs + inhibitory effect against HKs (EvgS, EnvZ, PhoQ, and CpxA); settings: summary class; cited from earlier work
B. subtilis 168 strain [9] = test system: B. subtilis 168 strain; set-up: method as in PMID 27999439, PMID 28674376, PMID 26582287; key: MIC + antibacterial activity against Bacillus subtilis 168; settings: Bacillus subtilis 168, cited from earlier work
[10] = Bacillus subtilis, B. subtilis 168 strain grown in LB broth at 37 °C for 18 h, read-out: MIC

T2 sequence (Q45614 207-611): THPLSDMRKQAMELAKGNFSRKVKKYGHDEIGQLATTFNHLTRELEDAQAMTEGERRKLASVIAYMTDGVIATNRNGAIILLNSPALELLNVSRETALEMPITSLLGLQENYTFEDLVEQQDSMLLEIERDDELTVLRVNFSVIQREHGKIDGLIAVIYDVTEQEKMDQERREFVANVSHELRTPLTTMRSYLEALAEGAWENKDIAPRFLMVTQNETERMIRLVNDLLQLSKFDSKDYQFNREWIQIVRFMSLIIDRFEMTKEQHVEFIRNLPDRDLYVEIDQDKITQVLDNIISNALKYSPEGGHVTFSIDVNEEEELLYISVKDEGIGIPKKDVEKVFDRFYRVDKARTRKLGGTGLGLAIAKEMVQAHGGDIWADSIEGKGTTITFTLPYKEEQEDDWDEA
T5 sequence (Q45614 207-611): as above
T4 sequence (P0AEJ4 223-450): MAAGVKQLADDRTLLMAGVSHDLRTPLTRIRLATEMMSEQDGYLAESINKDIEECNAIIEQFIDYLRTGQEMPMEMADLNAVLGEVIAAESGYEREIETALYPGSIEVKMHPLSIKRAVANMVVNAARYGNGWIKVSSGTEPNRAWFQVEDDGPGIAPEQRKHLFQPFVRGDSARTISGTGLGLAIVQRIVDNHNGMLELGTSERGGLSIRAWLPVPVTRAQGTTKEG
T1 sequence (P23837 261-486): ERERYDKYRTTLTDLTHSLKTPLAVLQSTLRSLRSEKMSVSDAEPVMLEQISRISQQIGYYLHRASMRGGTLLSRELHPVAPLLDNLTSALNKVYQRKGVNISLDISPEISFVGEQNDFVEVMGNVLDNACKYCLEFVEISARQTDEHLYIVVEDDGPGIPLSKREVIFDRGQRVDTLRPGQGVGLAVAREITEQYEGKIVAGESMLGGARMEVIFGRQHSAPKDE
T3 sequence (P30855 559-1197 D1009A): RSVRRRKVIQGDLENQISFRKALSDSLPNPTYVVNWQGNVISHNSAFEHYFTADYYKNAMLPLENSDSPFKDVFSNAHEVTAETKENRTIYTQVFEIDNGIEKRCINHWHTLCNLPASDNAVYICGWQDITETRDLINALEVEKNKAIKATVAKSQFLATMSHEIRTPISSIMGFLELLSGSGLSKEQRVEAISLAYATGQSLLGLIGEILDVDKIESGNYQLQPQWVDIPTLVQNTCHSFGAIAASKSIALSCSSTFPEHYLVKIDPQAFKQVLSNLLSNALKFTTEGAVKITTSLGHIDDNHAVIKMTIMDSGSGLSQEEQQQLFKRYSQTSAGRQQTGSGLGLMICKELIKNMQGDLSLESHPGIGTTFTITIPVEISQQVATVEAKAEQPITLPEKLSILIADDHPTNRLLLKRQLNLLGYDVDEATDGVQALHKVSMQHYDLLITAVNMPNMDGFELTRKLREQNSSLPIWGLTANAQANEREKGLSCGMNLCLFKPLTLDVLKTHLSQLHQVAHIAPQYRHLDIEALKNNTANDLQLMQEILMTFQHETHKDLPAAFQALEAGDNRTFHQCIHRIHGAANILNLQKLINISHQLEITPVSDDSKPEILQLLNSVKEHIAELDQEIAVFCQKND
T6 sequence (P0AE82 188-457): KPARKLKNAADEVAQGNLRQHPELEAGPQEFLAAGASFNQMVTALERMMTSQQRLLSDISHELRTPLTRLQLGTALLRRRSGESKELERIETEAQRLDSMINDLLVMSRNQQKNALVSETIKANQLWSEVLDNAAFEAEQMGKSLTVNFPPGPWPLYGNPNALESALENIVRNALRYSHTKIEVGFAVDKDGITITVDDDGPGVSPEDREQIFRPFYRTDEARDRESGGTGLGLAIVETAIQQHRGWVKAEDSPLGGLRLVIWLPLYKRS

With Nc1cccc2c1C(=O)C(Cl)=C(Nc1ccc(O)c(C(=O)O)c1)C2=O [2o, 5-((5-amino-3-chloro-1,4-dioxo-1,4-dihydronaphthalen-2-yl)amino)-2-hydroxybenzoic acid] the IC50 (PhoQ) was 0.1 µM, the IC50 (WalK [1]) was 25.9 µM and the “inhibitory activity against WalK” value (WalK [1]; in words) was “weaker”. The WalK (WalK [1]; summary class) was “+”, the IC50 (EvgS (559–1197) D1009A) was 0.2 µM and the “expression of iseA” value (iseA (formerly yoeB) [2]; exponentially growing cells, subMIC or MIC levels, 5 min, relative to DMSO control) was “did not change”. For the same compound, the RT-qPCR (iseA (formerly yoeB) [2]; summary class, iseA gene expression in B. subtilis 168) was “−”, the IC50 (EnvZ) was 1.3 µM and the “effect on the signal of waldiomycin” value ([3]; compound 30 and 100 µM, in words) was “reduced the signal of waldiomycin in a dose-dependent manner”. For the same compound, the “signal of waldiomycin compared to only waldiomycin with WalK” value ([3]; compound at 100 µM, waldiomycin 5 µM, WalK 1 µM) was “about 10%”, the “binding to WalK competitive with that of waldiomycin” value ([3]; in words) was “competitive; also recorded: competitively interacted with waldiomycin” and the AS/MS ([3]; summary class, effect on binding of waldiomycin to WalK) was “+”. The IC50 (CpxA) was 0.8 µM, the “inhibition of EvgS, EnvZ, PhoQ, and CpxA” value ([4]; in words) was “inhibited all four of these HKs” and the HKs ([4]; summary class, EvgS, EnvZ, PhoQ, and CpxA) was “+”. The MIC (B. subtilis 168 strain [5]; [10]) was 16 µg/mL, the “antibacterial (antimicrobial) activity against B. subtilis” value (B. subtilis 168 strain [5]; in words) was “weaker” and the MIC (B. subtilis 168 strain [5]; summary class, Bacillus subtilis 168) was “+”.

For C[C@@H]1O[C@](C)(C(=O)O)OC1/C=C/C=C/C=C/C(=O)O[C@H]1CC[C@H](c2ccc3c(c2O)C(=O)c2ccc4c(c2C3=O)C(=O)[C@@H](O)[C@](C)(O)C4)O[C@@H]1C (stereo partly shown) [Waldiomycin, reference compound], the IC50 (PhoQ) is listed as 10.9 µM, the IC50 (WalK [1]) is listed as 13.1 µM and the “inhibition of class I HKs” value (class I HKs) is listed as “inhibited 13 class I HKs”. The WalK (WalK [6]) was “+”, the IC50 (EvgS (559–1197) D1009A) was 66.8 µM and the IC50 (EnvZ) was 33.1 µM. The “concentration of waldiomycin in the eluate of WalK and waldiomycin” value ([3]; without competitor, WalK 1 µM, waldiomycin 5 µM) was 10.1 nM, the RT-qPCR (iseA (formerly yoeB) [7]) was “+” and the IC50 (CpxA) was 93.9 µM. For the same compound, the HKs [8] was “+”, the MIC (B. subtilis 168 strain [5]; [10]) was 8 µg/mL and the MIC (B. subtilis 168 strain [9]) was 8 µg/mL. The MIC (B. subtilis 168 strain [9]; summary class) was “+”.
